Test results reported in patent US20070049564A1 (Wyeth, priority 2005, published 2007).
≈ marks a conversion by molar mass, not a printed value. Where two headings read alike, the source gives them in different places.

How the values were obtained:
c. albicans GC 3066 = test: MIC, broth microdilution
E. faecalis GC 2267 = test: MIC, broth microdilution; conditions: Enterococcus faecalis, GC2267, E. faecalis GC 2267
E. faecalis GC 4555 = test: MIC, broth microdilution; conditions: Enterococcus faecalis, GC4555, E. faecalis GC 4555
E. coli GC 2231 = test: MIC, broth microdilution; conditions: Escherichia coli, GC2231, E. coli GC 2231
P. aeruginosa GC 2214 = test: MIC, broth microdilution; conditions: Pseudomonas aeruginosa, GC2214, P. aeruginosa GC 2214
E. faecium GC 2243 = test: MIC, broth microdilution; conditions: Enterococcus faecium, GC2243, E. faecium GC 2243
S. epidermidis GC 4935 = test: MIC, broth microdilution; conditions: Staphylococcus epidermidis, GC4935, S. epidermidis GC 4935
E. faecalis GC 2242 = test: MIC, broth microdilution; conditions: Enterococcus faecalis, GC2242, E. faecalis GC 2242
S. pneumoniae+ GC 4465 = test: MIC, broth microdilution; conditions: Streptococcus pneumoniae, S. pneumoniae+ GC 4465
S. aureus GC 1131 = test: MIC, broth microdilution; conditions: Staphylococcus aureus, GC1131, S. aureus GC 1131
E. coli GC 2272 = test: MIC, broth microdilution; conditions: Escherichia coli, GC2272, E. coli GC 2272
S. aureus GC 2216 = test: MIC, broth microdilution; conditions: Staphylococcus aureus, GC2216, S. aureus GC 2216
E. coli GC 2236 = test: MIC, broth microdilution; conditions: Escherichia coli, GC2236, E. coli GC 2236
Staph. = test: Range of MIC for Staph. strains, including MRSA; conditions: Staphylococcus aureus, MRSA
S. aureus GC 4536 = test: MIC, broth microdilution; conditions: Staphylococcus aureus, GC4536, S. aureus GC 4536
E. coli GC 2232 = test: MIC, broth microdilution; conditions: Escherichia coli, GC2232, E. coli GC 2232
Staph. aureus Smith = test: In vivo activity (oral, iv; ED50) against Staph. aureus Smith in mice
Description: Representative examples of compounds of Formula I were tested for the oral efficacy using S. aureus Smith in mice.

S. pneumoniae* GC 4465 = test: MIC, broth microdilution; conditions: Streptococcus pneumoniae, S. pneumoniae* GC 4465
E. coli = test: Range of MIC for E. coli strains; conditions: Escherichia coli
E. faecalis GC 2265 = test: MIC, broth microdilution; conditions: Enterococcus faecalis, GC2265, E. faecalis GC 2265
[1] = c. albicans GC 3066, Water pre-incubation
[2] = read-out: Range of MIC, Staph (Mouse Serum)
[3] = read-out: Range of MIC, Staph (Water)
[4] = Staphylococcus aureus, in Mus musculus, po, read-out: ED50 Staph Smith SOD
[5] = iv, read-out: ED50 Staph Smith SIV
[6] = 20 h, read-out: Range of MIC, E. coli (Mouse Serum)

## CCCN(CC(=O)Nc1cc(N(C)C)c2c(c1O)C(=O)C1=C(O)[C@]3(O)C(=O)C(C(N)=O)=C(O)[C@@H](N(C)C)[C@@H]3C[C@@H]1C2)C(=O)OCOC(=O)Cc1ccccc1 [Example 11, ({[(2-{[(5aR,6aS,7S,10aS)-9-(aminocarbonyl)-4,7-bis(dimethylamino)-1,8,10a,11′-tetrahydroxy-10,12-dioxo-5,5a,6,6a,7,10,10a,12-octahydrotetracen-2-yl]amino}-2-oxoethyl)(propyl)amino]carbonyl}oxy)methyl phenylacetate]
c. albicans GC 3066; Candida albicans, GC3066
  MIC: > 64 µg/mL
c. albicans GC 3066; [1]
  MIC: >64 UG/ML
E. faecalis GC 2267; Mouse Serum pre-incubation
  MIC: 2 µg/mL (≈ 2.62 µM)
E. faecalis GC 2267; Water pre-incubation
  MIC: 2 µg/mL (≈ 2.62 µM)
E. faecalis GC 4555; Mouse Serum pre-incubation
  MIC: 0.5 µg/mL (≈ 0.655 µM)
E. faecalis GC 4555; Water pre-incubation
  MIC: 1 µg/mL (≈ 1.31 µM)
E. coli GC 2231; Mouse Serum pre-incubation
  MIC: 2 µg/mL (≈ 2.62 µM)
E. coli GC 2231; Water pre-incubation
  MIC: 64 µg/mL (≈ 83.8 µM)
P. aeruginosa GC 2214; Mouse Serum pre-incubation
  MIC: 16 µg/mL (≈ 20.9 µM)
P. aeruginosa GC 2214; Water pre-incubation
  MIC: > 64 µg/mL
E. faecium GC 2243; Mouse Serum pre-incubation
  MIC: 0.12 µg/mL (≈ 0.157 µM)
E. faecium GC 2243; Water pre-incubation
  MIC: 0.25 µg/mL (≈ 0.327 µM)
S. epidermidis GC 4935; Mouse Serum pre-incubation
  MIC: 1 µg/mL (≈ 1.31 µM)
S. epidermidis GC 4935; Water pre-incubation
  MIC: 2 µg/mL (≈ 2.62 µM)
E. faecalis GC 2242; Mouse Serum pre-incubation
  MIC: 0.25 µg/mL (≈ 0.327 µM)
E. faecalis GC 2242; Water pre-incubation
  MIC: 0.5 µg/mL (≈ 0.655 µM)
S. pneumoniae+ GC 4465; Mouse Serum pre-incubation
  MIC: 2 µg/mL (≈ 2.62 µM)
S. pneumoniae+ GC 4465; Water pre-incubation
  MIC: 2 µg/mL (≈ 2.62 µM)
S. aureus GC 1131; Mouse Serum pre-incubation
  MIC: 0.25 µg/mL (≈ 0.327 µM)
S. aureus GC 1131; Water pre-incubation
  MIC: 0.25 µg/mL (≈ 0.327 µM)
E. coli GC 2272; Mouse Serum pre-incubation
  MIC: 0.25 µg/mL (≈ 0.327 µM)
E. coli GC 2272; Water pre-incubation
  MIC: 4 µg/mL (≈ 5.24 µM)
S. aureus GC 2216; Mouse Serum pre-incubation
  MIC: 0.5 µg/mL (≈ 0.655 µM)
S. aureus GC 2216; Water pre-incubation
  MIC: 0.5 µg/mL (≈ 0.655 µM)
E. coli GC 2236; Mouse Serum pre-incubation
  MIC: 0.5 µg/mL (≈ 0.655 µM)
E. coli GC 2236; Water pre-incubation
  MIC: 8 µg/mL (≈ 10.5 µM)
Staph.; [2]
  MIC: 0.25 to 4 µg/mL (≈ 0.327 to 5.24 µM)
Staph.; [3]
  MIC: 0.25 to 4 µg/mL (≈ 0.327 to 5.24 µM)
Staph.; read-out: Range of MIC, Staph. (mouse serum)
  MIC: 0.25 to 4 µg/mL (≈ 0.327 to 5.24 µM)
Staph.; read-out: Range of MIC, Staph. (water)
  MIC: 0.25 to 4 µg/mL (≈ 0.327 to 5.24 µM)
S. aureus GC 4536; Mouse Serum pre-incubation
  MIC: 0.5 µg/mL (≈ 0.655 µM)
S. aureus GC 4536; Water pre-incubation
  MIC: 0.5 µg/mL (≈ 0.655 µM)
E. coli GC 2232; Mouse Serum pre-incubation
  MIC: 1 µg/mL (≈ 1.31 µM)
E. coli GC 2232; Water pre-incubation
  MIC: 16 µg/mL (≈ 20.9 µM)
Staph. aureus Smith; [4]
  ED50: 30.3 mg/kg
Staph. aureus Smith; [5]
  ED50: 0.59 mg/kg
S. pneumoniae* GC 4465; Mouse Serum pre-incubation
  MIC: < 0.06 µg/mL
S. pneumoniae* GC 4465; Water pre-incubation
  MIC: < 0.06 µg/mL
E. coli; [6]
  MIC: 0.25 to 2 µg/mL (≈ 0.327 to 2.62 µM)
E. coli; read-out: Range of MIC, E. coli (mouse serum)
  MIC: 0.25 to 2 µg/mL (≈ 0.327 to 2.62 µM)
E. faecalis GC 2265; Mouse Serum pre-incubation
  MIC: 2 µg/mL (≈ 2.62 µM)
E. faecalis GC 2265; Water pre-incubation
  MIC: 4 µg/mL (≈ 5.24 µM)

## CCCCN(CC(=O)Nc1cc(N(C)C)c2c(c1O)C(=O)C1=C(O)[C@]3(O)C(=O)C(C(N)=O)=C(O)[C@@H](N(C)C)[C@@H]3C[C@@H]1C2)C(=O)OCOC(=O)Cc1ccccc1 [Example 12, ({[(2-{[(5aR,6aS,7S,10aS)-9-(aminocarbonyl)-4,7-bis(dimethylamino)-1,8,10a,11-tetrahydroxy-10,12-dioxo-5,5a,6,6a,7,10,10a,12-octahydrotetracen-2-yl]amino}-2-oxoethyl)(butyl)amino]carbonyl}oxy)methyl phenylacetate]
c. albicans GC 3066; Candida albicans, GC3066
  MIC: > 64 µg/mL
c. albicans GC 3066; [1]
  MIC: >64 UG/ML
E. faecalis GC 2267; Mouse Serum pre-incubation
  MIC: 2 µg/mL (≈ 2.57 µM)
E. faecalis GC 2267; Water pre-incubation
  MIC: 8 µg/mL (≈ 10.3 µM)
E. faecalis GC 4555; Mouse Serum pre-incubation
  MIC: 0.5 µg/mL (≈ 0.643 µM)
E. faecalis GC 4555; Water pre-incubation
  MIC: 4 µg/mL (≈ 5.14 µM)
E. coli GC 2231; Mouse Serum pre-incubation
  MIC: 2 µg/mL (≈ 2.57 µM)
E. coli GC 2231; Water pre-incubation
  MIC: 64 µg/mL (≈ 82.3 µM)
P. aeruginosa GC 2214; Mouse Serum pre-incubation
  MIC: 32 µg/mL (≈ 41.1 µM)
P. aeruginosa GC 2214; Water pre-incubation
  MIC: > 64 µg/mL
E. faecium GC 2243; Mouse Serum pre-incubation
  MIC: 0.5 µg/mL (≈ 0.643 µM)
E. faecium GC 2243; Water pre-incubation
  MIC: 4 µg/mL (≈ 5.14 µM)
S. epidermidis GC 4935; Mouse Serum pre-incubation
  MIC: 4 µg/mL (≈ 5.14 µM)
S. epidermidis GC 4935; Water pre-incubation
  MIC: 8 µg/mL (≈ 10.3 µM)
E. faecalis GC 2242; Mouse Serum pre-incubation
  MIC: 2 µg/mL (≈ 2.57 µM)
E. faecalis GC 2242; Water pre-incubation
  MIC: 4 µg/mL (≈ 5.14 µM)
S. pneumoniae+ GC 4465; Mouse Serum pre-incubation
  MIC: 4 µg/mL (≈ 5.14 µM)
S. pneumoniae+ GC 4465; Water pre-incubation
  MIC: 8 µg/mL (≈ 10.3 µM)
S. aureus GC 1131; Mouse Serum pre-incubation
  MIC: 1 µg/mL (≈ 1.29 µM)
S. aureus GC 1131; Water pre-incubation
  MIC: 2 µg/mL (≈ 2.57 µM)
E. coli GC 2272; Mouse Serum pre-incubation
  MIC: 1 µg/mL (≈ 1.29 µM)
E. coli GC 2272; Water pre-incubation
  MIC: 16 µg/mL (≈ 20.6 µM)
S. aureus GC 2216; Mouse Serum pre-incubation
  MIC: 1 µg/mL (≈ 1.29 µM)
S. aureus GC 2216; Water pre-incubation
  MIC: 4 µg/mL (≈ 5.14 µM)
E. coli GC 2236; Mouse Serum pre-incubation
  MIC: 1 µg/mL (≈ 1.29 µM)
E. coli GC 2236; Water pre-incubation
  MIC: 16 µg/mL (≈ 20.6 µM)
Staph.; read-out: Minimum inhibitory concentration (MIC), Staph. (mouse serum)
  MIC: 0.5 to 4 µg/mL (≈ 0.643 to 5.14 µM)
Staph.; read-out: Minimum inhibitory concentration (MIC), Staph. (water)
  MIC: 1 to 16 µg/mL (≈ 1.29 to 20.6 µM)
Staph.; [2]
  MIC: 0.5 to 4 µg/mL (≈ 0.643 to 5.14 µM)
Staph.; [3]
  MIC: 1 to 16 µg/mL (≈ 1.29 to 20.6 µM)
S. aureus GC 4536; Mouse Serum pre-incubation
  MIC: 1 µg/mL (≈ 1.29 µM)
S. aureus GC 4536; Water pre-incubation
  MIC: 2 µg/mL (≈ 2.57 µM)
E. coli GC 2232; Mouse Serum pre-incubation
  MIC: 0.5 µg/mL (≈ 0.643 µM)
E. coli GC 2232; Water pre-incubation
  MIC: 32 µg/mL (≈ 41.1 µM)
Staph. aureus Smith; [4]
  ED50: 15 mg/kg
Staph. aureus Smith; [5]
  ED50: 1 mg/kg
S. pneumoniae* GC 4465; Mouse Serum pre-incubation
  MIC: < 0.06 µg/mL
S. pneumoniae* GC 4465; Water pre-incubation
  MIC: 0.12 µg/mL (≈ 0.154 µM)
E. coli; [6]
  MIC: 0.5 to 2 µg/mL (≈ 0.643 to 2.57 µM)
E. coli; read-out: Minimum inhibitory concentration (MIC), E. coli (mouse serum)
  MIC: 0.5 to 2 µg/mL (≈ 0.643 to 2.57 µM)
E. coli; read-out: Minimum inhibitory concentration (MIC), E. coli (water)
  MIC: 16 to 64 µg/mL (≈ 20.6 to 82.3 µM)
E. coli; read-out: Range of MIC, E. coli (Water)
  MIC: 16 to 64 µg/mL (≈ 20.6 to 82.3 µM)
E. faecalis GC 2265; Mouse Serum pre-incubation
  MIC: 2 µg/mL (≈ 2.57 µM)
E. faecalis GC 2265; Water pre-incubation
  MIC: 8 µg/mL (≈ 10.3 µM)
